According to US5227384A, “5-substituted [4,5-c] imidazopyridines and pharmaceutical use thereof” (G. D. Searle & Co., priority 1991, dated 1993):

Tests used:
rabbit platelets [1] = experiment: PAF-induced platelet secretion ([^3 H]serotonin); type: cell-based; conditions: Oryctolagus cuniculus, washed [^3 H]serotonin-labeled rabbit platelets, 60 sec after PAF, IC50 by inspection of dose-response curves
Experimental: (§1) PAF-induced platelet aggregation and secretion: Washed, [^3 H]serotonin-labeled rabbit platelets were prepared as previously described in COX, C. P., J. LINDEN and S. I. SAID: VIP elevates platelet cyclic AMP (cAMP) levels and inhibits in vitro platelet activation induced by platelet-activating factor (PAF). Peptides 5:25-28, 1984, and maintained in an atmosphere of 5% CO2 at 37° C. until used in the bioassay. […] Aggregation was continuously monitored on a strip-chart recorder and recorded as the height of the tracing at 60 sec after the addition of PAF. Secretion of [^3 H]serotonin was measured in a sample of the platelet suspension removed at 60 sec after the addition of PAF. The percent inhibition of aggregation and secretion was calculated by comparing antagonist-treated platelets with the appropriate vehicle-treated control platelets. Each combination of antagonist and PAF was repeated 12-15 times, using several different platelet preparations. IC50 values were determined by inspection of the dose-response curves.

rabbit platelets [2] = experiment: PAF-induced platelet aggregation; type: cell-based; conditions: Oryctolagus cuniculus, washed rabbit platelets, 60 sec after PAF, IC50 by inspection of dose-response curves
Experimental: as §1

[3] = target: PAF receptor (Human Platelet Membrane Receptors) (Homo sapiens, UniProt P25105)
Chain of PAF receptor (Human Platelet Membrane Receptors) (P25105 whole entry): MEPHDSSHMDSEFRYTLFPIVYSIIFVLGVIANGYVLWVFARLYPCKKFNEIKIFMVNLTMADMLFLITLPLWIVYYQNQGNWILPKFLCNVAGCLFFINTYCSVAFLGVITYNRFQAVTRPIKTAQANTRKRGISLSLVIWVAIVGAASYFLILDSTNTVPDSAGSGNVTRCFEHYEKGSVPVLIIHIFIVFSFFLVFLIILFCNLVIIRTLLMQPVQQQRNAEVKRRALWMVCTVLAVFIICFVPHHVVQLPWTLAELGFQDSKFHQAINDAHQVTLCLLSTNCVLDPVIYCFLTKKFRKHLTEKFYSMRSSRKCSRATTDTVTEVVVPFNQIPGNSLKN
Experimental: Inhibition of ^3 H-PAF Binding to Human Platelet Membrane Receptors
Receptor Preparation: Ten units of in-dated human packed platelets, each containing 45-65 ml platelet rich-plasma, were purchased from a commercial blood bank. Disposable plasticware was used throughout for receptor preparation. The units were pooled and a 1 ml aliquot was removed for determination of platelet concentration, using a Coulter Counter. The remaining platelet rich plasma was dispensed into 50 ml conical tubes and centrifuged at room temperature for 15 minutes at 3000 RPM (2300×g).Plasma was decanted and the platelets were resuspended in 35 ml of buffer 10 mM Trizma 7.0, 2 mM EDTA (dipotassium salt), and 150 mM KCl) and transferred to fresh tubes, which were centrifuged again as above. The platelets were washed 3 times, avoiding contaminating erythrocytes at the bottom of the pellets. Pellets were consolidated at each step, and by the last wash with EDTA/KCl buffer, most of the erythrocytes were in 1 tube. The pellets were resuspended in buffer containing 10 mM Trizma 7.0 with 10 mM CaCl2. Following centrifugation, the buffer was decanted and the pellets were resuspended in the CaCl2 buffer, avoiding erythrocyte contamination by recovering less than 100% of the platelet pellets. The resuspended platelets were dispensed in 8-10 ml aliquots into Corex tubes and disrupted by three cycles of freezing (dry ice/ethanol) and thawing (24° C.). The tubes were centrifuged at 40,000×g for 20 minutes at 4° C. Supernatants were decanted and each pellet was resuspended in 5-7 ml 10 mM Trizma 7.0. All resuspended pellets were pooled and aliquots of about 1200 ml were dispensed into 1.5 ml microfuge tubes and frozen at -70° C. Protein content was determined by a fluorescamine protein assay.
Assay Methods: Receptor Characterization--Each receptor preparation was evaluated to determine the number of receptor populations, the number of PAF receptor equivalents/mg protein and the dissociation constant (KD) for PAF binding. This required 2-3 experiments in which the protein concentration was held constant and the ^3 H-PAF ligand concentration was varied from approximately 0.10-2.5 nM and the data was analyzed by Scatchard methodology. Total incubation volume was 250 ml for these procedures and incubations were conducted at 24° C. for 30 minutes. For further experimentation, total incubation volumes are 500 ml. Protein and ligand concentrations were adjusted to give 0.075 nM receptor equivalents in the presence of 0.75 nM ^3 H-PAF. Each receptor preparation was then used to determine the dose--response displacement relationship of unlabeled PAF and the PAF antagonist, triazolam.
Assay Methods: Routine Assay of Compounds--The compounds were weighed precisely and solubilized in quantities of DMSO such that a 5 ml aliquot in the incubate would deliver the desired compound concentration. Compounds tested for the first time in this assay were evaluated at a concentration of 50 mM in the incubation medium. […] Triazolam was always included in each screening assay as a compound inhibition control. […] Nonspecific binding control solution was made by drying to completion about 26.2 ml unlabeled PAF under a stream of argon. PAF was resolubilized in 1000 ml DMSO. When delivered in a 5 ml aliquot, the final concentration of 1 mM PAF in the incubate exceeded by 1000-fold the concentration of ^3 H-PAF.
All buffers containing proteins were made at room temperature on the day of assay. Assay buffer was prepared by adding 125 mg human albumin to 25 ml of stock buffer (10 mM Trizma 7.4 with 20 mM CaCl2). Rinse buffer was made by adding 20 grams bovine serum albumin to i000 ml stock buffer. About 80 ml of rinse buffer was decanted into a small pyrex dish and used to soak 65 Whatman GF/C 2.5 cm glass filters. The remaining rinse buffer was poured into a repipet and placed into an ice bath along with the filters.

| Structure (SMILES) | IC50 (rabbit platelets [1]; 1 min) [nM] | IC50 (rabbit platelets [2]; 1 min) [nM] | IC50 [3] [nM] | IC50 (rabbit platelets [1]) [nM] | IC50 (rabbit platelets [2]) [nM] |
| --- | --- | --- | --- | --- | --- |
| CN(C(=O)c1ccc(CCn2ccc3ncnc-3c2)cc1)C1CCCCC1 [5-[2-[4-(N-methyl-N-cyclohexylcarboxamido)phenyl]ethyl]imidazo[4,5-c]pyridine] | 1000 to 10000 | 10000 to 100000 | – | – | – |
| CC(C)N(C(=O)c1cccc(Cn2ccc3ncnc-3c2)c1)C1CCCCC1 [5-[3-(N-isopropyl-N-cyclohexylcarboxamido)benzyl]imidazo[4,5-c]pyridine] | 1000 to 10000 | 50000 to 100000 | – | – | – |
| CN(C(=O)c1cccc(Cn2ccc3ncnc-3c2)c1)C1CCCCC1 [5-[3-(N-methyl-N-cyclohexylcarboxamido)benzyl]imidazo[4,5-c]pyridine] | 10000 to 100000 | 10000 to 100000 | – | – | – |
| CN(C(=O)c1ccc(CCCn2ccc3ncnc-3c2)cc1)C1CCCCC1 [5-[3-[4-(N-methyl-N-cyclohexylcarboxamido)phenyl]propyl]imidazo[4,5-c]pyridine] | 1000 to 10000 | 10000 to 100000 | 61100 | – | – |
| COc1cc(C(=O)N(C2CCCC2)C2CCCC2)ccc1Cn1ccc2ncnc-2c1 [5-[4-(N,N-dicyclopentylcarboxamido)-2-methoxybenzyl]imidazo[4,5-c]pyridine] | 1 to 10 | 10 to 100 | – | – | – |
| Cc1nc2ccn(Cc3ccc(C(=O)N(C4CCCC4)C4CCCC4)cc3)cc-2n1 [5-[4-(N,N-dicyclopentylcarboxamido)benzyl]-2-methylimidazo[4,5-c]pyridine] | 100 to 1000 | 1000 to 10000 | – | – | – |
| Cc1c2ncnc-2ccn1Cc1ccc(C(=O)N(C2CCCC2)C2CCCC2)cc1 [5-[4-(N,N-dicyclopentylcarboxamido)benzyl]-4-methylimidazo[4,5-c]pyridine] | 10 to 100 | 10 to 100 | 188 | – | – |
| O=C(c1ccc(Cn2ccc3ncnc-3c2)cc1)N(C1CCCC1)C1CCCC1 [5-[4-(N,N-dicyclopentylcarboxamido)benzyl]imidazo[4,5-c]pyridine] | 1 to 10 | 50 to 100 | 310 | – | – |
| CC(C)N(C(=O)c1ccc(Cn2ccc3ncnc-3c2)cc1)C(C)C [5-[4-(N,N-diisopropylcarboxamido)benzyl]imidazo[4,5-c]pyridine] | – | 1000 to 10000 | 7650 | – | – |
| CN(C(=O)c1ccc(Cn2ccc3ncnc-3c2)c(F)c1)C1CCCCC1 [5-[4-(N,methyl-N-cyclohexylcarboxamido)-2-fluorobenzyl]imidazo[4,5-c]pyridine] | 100 to 1000 | 1000 to 10000 | – | – | – |
| CC(C)(C)CC(C)(C)NC(=O)c1ccc(Cn2ccc3ncnc-3c2)cc1 [5-[4-(N-2(2,4,4-trimethyl)pentylcarboxamide)benzyl]imidazo[4,5-c]pyridine] | – | – | 22300 | 1000 | 10000 |
| CN(C(=O)c1ccc(Cn2ccc3ncnc-3c2)cc1)C1CCC2CCCCC2C1 (centres unmarked) [5-[4-(N-2-decalyl-N-methylcarboxamido)benzyl]imidazo[4,5-c]pyridine] | – | – | 13200 | 1000 | – |
| CC1CCCC(N(C(=O)c2ccc(Cn3ccc4ncnc-4c3)cc2)C2CCCC2)C1 (centres unmarked) [5-[4-(N-3-methylcyclohexyl-N-cyclopentylcarboxamido)benzyl]imidazo[4,5-c]pyridine] | 1 to 10 | 10 to 100 | 74 | – | – |
| CCC(CC)N(C(=O)c1ccc(Cn2ccc3ncnc-3c2)cc1)C1CCCCC1 [5-[4-(N-3-pentyl-N-cyclohexylcarboxamido)benzyl]imidazo[4,5-c]pyridine] | 10 to 100 | 100 to 1000 | – | – | – |
| CC1CCC(N(C(=O)c2ccc(Cn3ccc4ncnc-4c3)cc2)C2CCCC2)CC1 (centres unmarked) [5-[4-(N-4-methylcyclohexyl-N-cyclopentylcarboxamido)benzyl]imidazo[4,5-c]pyridine] | 10 to 100 | 100 to 1000 | 750 | – | – |
| O=C(c1ccc(Cn2ccc3ncnc-3c2)cc1)N(C1CCCCC1)C1CCC1 [5-[4-(N-cyclobutyl-N-cyclohexylcarboxamido)benzyl]imidazo[4,5-c]pyridine] | 1 to 10 | 10 to 100 | 19.9 | – | – |
| O=C(NC1CCCCC1)c1ccc(Cn2ccc3ncnc-3c2)cc1 [5-[4-(N-cyclohexylcarboxamido)benzyl]imidazo[4,5-c]pyridine] | 100 to 1000 | – | 19300 | – | 10000 |
| O=C(c1ccc(Cn2ccc3ncnc-3c2)c(F)c1)N(C1CCCCC1)C1CCCC1 [5-[4-(N-cyclopentyl-N-cyclohexylcarboxamido)-2-fluorobenzyl]imidazo[4,5-c]pyridine] | 1 to 10 | 10 to 100 | 75.5 | – | – |
| O=C(c1ccc(Cn2ccc3ncnc-3c2)cc1)N(C1CCCCC1)C1CCCC1 [5-[4-(N-cyclopentyl-N-cyclohexylcarboxamido)benzyl]imidazo[4,5-c]pyridine] | 1 to 10 | 10 to 100 | 320 | – | – |

| Structure (SMILES) | IC50 (rabbit platelets [1]; 1 min) [nM] | IC50 (rabbit platelets [2]; 1 min) [nM] | IC50 [3] [nM] | IC50 (rabbit platelets [1]) [nM] | IC50 (rabbit platelets [2]) [nM] |
| --- | --- | --- | --- | --- | --- |
| O=C(c1ccc(Cn2ccc3ncnc-3c2)cc1)N(C1CCCCC1)C1CC1 [5-[4-(N-cyclopropyl-N-cyclohexylcarboxamido)benzyl]imidazo[4,5-c]pyridine] | 100 to 1000 | – | 3680 | – | – |
| CCN(C(=O)c1ccc(Cn2ccc3ncnc-3c2)cc1)C1CCCCC1 [5-[4-(N-ethyl-N-cyclohexylcarboxamido)carboxamido)benzyl]imidazo[4,5-c]pyridine] | – | – | 5200 | 100 to 1000 | 1000 to 10000 |
| CC(C)CN(C(=O)c1ccc(Cn2ccc3ncnc-3c2)cc1)C1CCCCC1 [5-[4-(N-isobutyl-N-cyclohexylcarboxamido)benzyl]imidazo[4,5-c]pyridine] | – | – | – | 100 | 1000 |
| CC(C)N(C(=O)c1ccc(Cn2ccc3ncnc-3c2)c(F)c1)C1CCCCC1 [5-[4-(N-isopropyl-N-cyclohexylcarboxamido)-2-fluorobenzyl]imidazo[4,5-c]pyridine] | 10 to 100 | 10 to 100 | – | – | – |
| COc1cc(C(=O)N(C)C2CCCCC2)ccc1Cn1ccc2ncnc-2c1 [5-[4-(N-methyl-N-cyclohexylcarboxamido)-2-methoxybenzyl]imidazo[4,5-c]pyridine] | 100 to 1000 | 1000 to 10000 | – | – | – |
| CN(C(=O)c1ccc(Cn2ccc3ncnc-3c2)cc1)C1CCCCC1 [5-[4-(N-methyl-N-cyclohexylcarboxamido)benzyl]imidazo[4,5-c]pyridine] | – | 1000 to 10000 | 15200 | 720 | – |
| CCCCCCCCCCNC(=O)c1ccc(Cn2ccc3ncnc-3c2)cc1 [5-[4-(N-n-decylcarboxamido)benzyl]imidazo[4,5-c]pyridine] | 100 to 1000 | 1000 to 10000 | 9710 | – | – |
| CCCCCCCCCCCCNC(=O)c1ccc(Cn2ccc3ncnc-3c2)cc1 [5-[4-(N-n-dodecylcarboxamido)benzyl]imidazo[4,5-c]pyridine] | – | 100 to 1000 | 11900 | – | – |
| CCCCCCCCNC(=O)c1ccc(Cn2ccc3ncnc-3c2)cc1 [5-[4-(N-n-octylcarboxamido)benzyl]imidazo[4,5-c]pyridine] | 100 to 1000 | 1000 to 10000 | 11000 | – | – |
| O=C(c1ccc(Cn2ccc3ncnc-3c2)cc1)N(c1ccccc1)C1CCCC1 [5-[4-(N-phenyl-N-cyclopentylcarboxamido)benzyl]imidazo[4,5-c]pyridine] | 100 to 1000 | – | 2350 | – | 1000 |
| CCC(C)N(C(=O)c1ccc(Cn2ccc3ncnc-3c2)cc1)C1CCCCC1 (centres unmarked) [5-[4-(N-sec.butyl-N-cyclohexylcarboxamido)benzyl]imidazo[4,5-c]pyridine] | 1 to 10 | 50 to 100 | – | – | – |
| CC(C)(C)N(C(=O)c1ccc(Cn2ccc3ncnc-3c2)cc1)C1CCCCC1 [5-[4-(N-tert.butyl-N-cyclohexylcarboxamido)benzyl]imidazo[4,5-c]pyridine] | 1 to 10 | 10 to 100 | – | – | – |
| COc1cc(C(=O)N(C2CCCCC2)C2CCCC2)ccc1Cn1ccc2ncnc-2c1 [5-[4{-(N-cyclopentyl,N-cyclohexyl)carboxamido}-2-methoxybenzyl]imidazo[4,5-c]-pyridine] | 1 to 10 | – | – | – | 10 |
| COc1cc(C(=O)N(C(C)C)C2CCCCC2)ccc1Cn1ccc2ncnc-2c1 [5-[4{-(N-isopropyl,N-cyclohexyl)carboxamido}-2-methoxybenzyl]imidazo[4,5-c]pyridine] | – | 10 to 100 | 66.5 | 10 | – |
| CC(C)N(C(=O)c1ccc(Cn2ccc3ncnc-3c2)cc1)C1CCCCC1 [5-[4{-(N-isopropylyl,N-cyclohexyl)carboxamido}benzyl]imidazo[4.5-c]pyridine] | – | 10 to 100 | 170 | 10 | – |
| O=C(c1ccc(Cn2ccc3ncnc-3c2)cc1)N(C1CCCCC1)C1CCCCC1 [5-[(4-(N,N-dicyclohexylcarboxamido)benzyl]imidazo[4,5-c]pyridine] | – | 100 to 1000 | 1060 | 10 | – |
| Cc1cc(C(=O)N(C2CCCCC2)C2CCCC2)ccc1Cn1ccc2ncnc-2c1 [N-cyclohexyl-N-cyclopentyl-4-(5H)-imidazo[4,5-c]pyridin-5-ylmethyl)-3-methylbenzamide] | – | – | 18 | 2 | – |
| COc1cc(Cn2ccc3ncnc-3c2)ccc1C(=O)N(C1CCCC1)C1CC(C)CC(C)C1 (centres unmarked) [N-cyclopentyl-N-(3,5-dimethylcyclohexyl)-4-(5H-imidazo[4,5-c]pyridin-5-ylmethyl)-2-methoxybenzamide] | – | – | 1 | 1 | – |
